What is called LOAEL is the lowest tested level that showed an adverse finding. As a reminder, the NOAEL is the highest tested level that showed no adverse finding.

Values joined by “and” are separate entries in the source; they are usually repeats but may differ in a detail not shown here. Equal entries are not always repeated.

Here are results for eleven compounds from EPA's ToxValDB 9.5.

For data set [1], the system named is Rattus norvegicus. To be noted: oral; for NOAEL: M/F.
The subject of another data set is Canidae. The note with it: chronic, oral, diet, Dog Other.
Data set [2] has as its system Rattus norvegicus. To be noted: oral, M/F.
In data set [3] the test system is Rattus norvegicus. To be noted: oral.
Data set [4] deals with Rattus norvegicus. To be noted: Hershberger, oral, gavage.
[5] abbreviates: duration: 2 years, M/F, abnormal pigments in blood.
The mark [6] stands for this setting: duration: 2 years, M/F, testicular degeneration.
[7] abbreviates: duration: 6 months, M/F, increased serum alkaline phosphatase levels and increased liver-to-brain weight ratio.
Setting [8] is: developmental, duration: 2 years, diet, reduced body weight gain, reduced pup weight and parental food consumption.
Setting [9] is: developmental, reduced pup weight and parental food consumption.
[10] abbreviates: duration: 10 days, Sprague-Dawley, active + Negative + Antiandrogenic + anti-androgenic + significant decrease in serum testosterone at 800 (49% decrease at 400 NS) / ….
The mark [11] stands for this setting: duration: 1 years, M/F, gastric mucosal irritation.
Where [12] appears, read: duration: 1 years, F, anemia (males).
The mark [13] stands for this setting: duration: 1 years, M, anemia (males).
[14] abbreviates: subchronic, reduced body weight.
[15] abbreviates: subchronic, reduced rbc and plasma cholinesterase activity.
Where [16] appears, read: duration: 1 years, M, increased serum bilirubin and aspartate aminotransferase, increased urinary volume.
Where [17] appears, read: subchronic, duration: 90 days, reduced body weight and neurotoxicity.

With `CN(C)C(=O)Nc1ccc(Cl)c(Cl)c1` [Diuron], the NOEL with Rattus norvegicus [1] (subchronic, gavage, M, Sprague-Dawley, Body Weight Changes: decrease + Hematology: RBC decrease, Hgb decrease, Hct decrease, MCHC decrease, MCV increase, Ret increase + Blood …) was determined as 20 mg/kg-day. In addition, in the data set on Canidae (setting [5]), the LEL is 3.12 mg/kg-day and the NOEL stood at 0.625 mg/kg-day.
In the data set on Canidae (duration: 2 years, testicular degeneration), `CCOP(=O)=O.CCOP(=O)=O.CCOP(=O)=O.[Al+3]` [Fosetyl aluminum] displayed an NOEL of 250 mg/kg-day. In the data set with Canidae (setting [6]), this compound came in with an LEL of 400 mg/kg-day and an NOEL of 250 mg/kg-day.
In the data set on Rattus norvegicus [2] (chronic, duration: 2 years, diet, renal dysfunction), `O=c1ccc(=O)[nH][nH]1` [Maleic hydrazide] yielded an LEL of 500 mg/kg-day. The same compound showed an LOAEL in the data set with Rattus norvegicus [3] (chronic, duration: 28 months, diet, Kidney: Altered function) of 500 mg/kg-day.
Regarding `COCC(=O)N(c1c(C)cccc1C)C(C)C(=O)OC` (centres undefined) [Metalaxyl], in the data set with Canidae (setting [7]), the LEL is 25 mg/kg-day and the NOEL was 6.25 mg/kg-day. Further, the NOEL in the data set with Rattus norvegicus [4] (duration: 10 days, Sprague-Dawley, inactive + Negative + Negative + neither + negative) came to 350 mg/kg-day.
Regarding `CCc1cccc(C)c1N(C(=O)CCl)C(C)COC` (centres undefined) [Metolachlor], the LEL in the data set on Rattus norvegicus [2] (setting [8]) turned out to be 150 mg/kg-day; in the data set on Rattus norvegicus [2] (setting [9]), 50 mg/kg-day. The NOEL in the data set on Rattus norvegicus [2] (setting [8]) is 15 mg/kg-day; in the data set on Rattus norvegicus [2] (setting [9]) it was 15 mg/kg-day; in the data set on Rattus norvegicus [4] (setting [10]) it was 400 mg/kg-day and 300 mg/kg-day. Further, the LOEL in the data set with Rattus norvegicus [4] (setting [10]) was 800 mg/kg-day and 500 mg/kg-day. In the data set with Rattus norvegicus [3] (chronic, duration: 2 years, diet, Whole body: Decreased weight gain), the NOAEL turned out to be 23.4 mg/kg-day.
In the data set on Canidae (setting [11]), `CCCC1COC(Cn2cncn2)(c2ccc(Cl)cc2Cl)O1` (centres undefined) [Propiconazole] gave an LEL of 6.25 mg/kg-day and an NOEL of 1.25 mg/kg-day. For the same compound, in the data set on Rattus norvegicus [4] (duration: 7 days, Wistar, Neither + effect on AGD in 2500mg/kg at birth / significant increase in testis wt at PND 50 in 500 and 2500 mg/kg but not at PND 92 or …), the NOEL came to 2500 mg/kg-day.
On to `CCC/C(=N\OCC)C1=C(O)CC(CC(C)SCC)CC1=O` (centres undefined) [Sethoxydim], for which, in the data set on Canidae (setting [12]), the LEL stood at 19.9 mg/kg-day and the NOEL is 9.41 mg/kg-day. In the data set on Canidae (setting [13]), this compound gave an LEL of 17.5 mg/kg-day and an NOEL of 8.86 mg/kg-day.
As for `CCN(CC)C(=S)[S-].[Na+]` [Sodium diethyldithiocarbamate], the LOAEL in the data set with Rattus norvegicus [2] (chronic, Reduced body weight and cataracts in females) came out at 62.5 mg/kg-day; with Rattus norvegicus [2] (setting [14]) it was 100 mg/kg-day. Further, the NOEL turned out to be 30 mg/kg-day in the data set with Rattus norvegicus [2] (setting [14]) and 30 mg/kg-day with Rattus norvegicus [3] (subchronic, duration: 90 days, Eye: Cataracts + Whole body: Decreased weight).
With `CCOP(=S)(OCC)OP(=S)(OCC)OCC` [Sulfotepp], in the data set with Rattus norvegicus [2] (setting [15]), the LEL was found to be 1 mg/kg-day and the NOEL amounted to 0.5 mg/kg-day. Also, the NOEL with Rattus norvegicus [3] (subchronic, duration: 3 months, diet, Blood: Decreased cholinesterase activity + Erythrocytes: Decreased cholinesterase activity) was 0.5 mg/kg-day.
In the data set on Canidae (setting [16]), `COC(=O)c1ccccc1S(=O)(=O)NC(=O)N(C)c1nc(C)nc(OC)n1` [Tribenuron-methyl] displayed an LEL of 8.16 mg/kg-day and an NOEL of 0.79 mg/kg-day.
Consider `Cc1cccc(O)c1` [m-Cresol], for which the NOAEL in the data set on Rattus norvegicus [1] (short-term, duration: 28 days, diet, Fischer 344, Body Weight Changes: Mean body weight decrease, Body weight gain decrease + Food Consumption: decrease + Absolute Organ Weight: Brain …) came to 3000 ppm; in the data set on Rattus norvegicus [1] (subchronic, duration: 13 weeks, gavage, Sprague-Dawley, Deaths + Clinical Observation: Lethargy Tremors Hunched posture Rough hair coats + Body Weight Changes: Mean body weight decrease, Body …) it was 50 mg/kg-day; with Rattus norvegicus [2] (setting [17]) it was 50 mg/kg-day; with Rattus norvegicus [3] (subchronic, duration: 90 days, gavage, Nervous system: Neurotoxicity + Whole body: Decreased weight gain) it was 50 mg/kg-day. In addition, the lowest-observed-adverse-effect level (LOAEL) in the data set on Rattus norvegicus [2] (setting [17]) turned out to be 150 mg/kg-day.
